Results published in US10988523B2, “Modified lipidated Relaxin B chain peptides and their therapeutic use” (Sanofi, priority 2018, dated 2021).
*1 amine or outer side, *2 acyl side, *3 side chain or, on linkers, in order; H or OH if unused. Where a SMILES comes first, the peptide text is derived from it. Side-chain parts run from the residue outwards. [ ]: non-standard residue; d: D form. The star is where a group is joined. X18 = CCCCCCCCCCCCCCCC(=O)N[C@@H](CCC(=O)N[C@@H](CCC(=O)N[C@@H](CCC(=O)NCCCC[C@H](NC(=O)CCC(=O)NCCCOCCOCCOCCCNC(=O)CCC(=O)NCCCOCCOCCOCCCNC(=O)CCC(=O)NCCCOCCOCCOCCCN*)C(N)=O)C(=O)O)C(=O)O)C(=O)O; X14 = CCCCCCCCCCCCCCC(=O)N[C@@H](CCC(=O)N[C@@H](CCC(=O)N[C@@H](CCC(=O)NCCCC[C@H](NC(=O)CCC(=O)NCCCOCCOCCOCCCNC(=O)CCC(=O)NCCCOCCOCCOCCCNC(=O)CCC(=O)NCCCOCCOCCOCCCN*)C(N)=O)C(=O)O)C(=O)O)C(=O)O; X17 = CCCCCCCCCCCCCCC(=O)N[C@@H](CCC(=O)N[C@@H](CCC(=O)N[C@@H](CCC(=O)NCCCOCCOCCOCCCNC(=O)CCC(=O)NCCCOCCOCCOCCCNC(=O)CCC(=O)NCCCOCCOCCOCCCN*)C(=O)O)C(=O)O)C(=O)O; X8 = CCCCCCCCCCCCCCCC(=O)N[C@@H](CCC(=O)N[C@@H](CCC(=O)N[C@@H](CCC(=O)NCCCOCCOCCOCCCNC(=O)CCC(=O)NCCCOCCOCCOCCCNC(=O)CCC(=O)NCCCOCCOCCOCCCN*)C(=O)O)C(=O)O)C(=O)O; γGlu = O=C(O)[C@H](CCC(=O)[*:2])N[*:1]; Pentadecanoyl = CCCCCCCCCCCCCCC(=O)*; Palmitoyl = CCCCCCCCCCCCCCCC(=O)*; Suc = O=C(CCC(=O)[*:2])[*:1]; αMeK = C[C@](N)(CCCCN)C(=O)O; Nle = CCCC[C@H](N)C(=O)O; AEEA = NCCOCCOCC(=O)O; Aib = CC(C)(N)C(=O)O

Biological target: T1, RXFP1 (Homo sapiens, UniProt Q9HBX9)
T1 construct: OVCAR5 cells expressing endogenous RXFP1; endogenous in cells; host or cells: OVCAR5 cells
T1 sequence (Q9HBX9 1-757): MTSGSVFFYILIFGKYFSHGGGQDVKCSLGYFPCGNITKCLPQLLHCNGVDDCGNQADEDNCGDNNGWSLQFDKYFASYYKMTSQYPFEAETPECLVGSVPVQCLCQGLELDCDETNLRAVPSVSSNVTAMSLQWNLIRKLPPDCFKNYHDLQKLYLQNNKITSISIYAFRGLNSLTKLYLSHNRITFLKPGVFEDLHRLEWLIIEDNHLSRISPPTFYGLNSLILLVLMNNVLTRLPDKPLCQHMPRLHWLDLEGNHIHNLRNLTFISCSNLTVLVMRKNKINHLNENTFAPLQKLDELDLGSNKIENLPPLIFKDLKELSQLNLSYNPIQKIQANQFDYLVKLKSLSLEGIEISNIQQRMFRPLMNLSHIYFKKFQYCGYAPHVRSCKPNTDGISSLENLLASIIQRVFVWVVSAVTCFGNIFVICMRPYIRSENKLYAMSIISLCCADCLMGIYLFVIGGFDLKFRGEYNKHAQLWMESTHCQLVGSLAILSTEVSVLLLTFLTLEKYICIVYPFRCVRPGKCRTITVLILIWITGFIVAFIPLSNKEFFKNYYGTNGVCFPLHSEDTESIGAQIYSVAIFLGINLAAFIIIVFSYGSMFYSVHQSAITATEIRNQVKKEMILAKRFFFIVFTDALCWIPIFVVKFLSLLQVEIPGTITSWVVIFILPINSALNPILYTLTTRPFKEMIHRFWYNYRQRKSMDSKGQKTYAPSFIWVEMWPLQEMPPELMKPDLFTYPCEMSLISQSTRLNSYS
Experiment: OVCAR5 cAMP assay (HTRF), RXFP1 agonist activity
Type: cell-based
Settings: for EC50: OVCAR5 cells, cAMP HTRF, read-out: EC50 (nM), OVCAR 5 cells (cAMP); for Emax: OVCAR-5, maximal cAMP relative to H2-relaxin maximum (100%), read-out: EMax, OVCAR 5 cells (cAMP)
Procedure, shortened: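 OVCAR5 cells (endogenous RXFP1) pretreated 40 min at 37° C with 1 mM IBMX, then exposed to peptides in serum-free medium for 30 min at 37° C. Lysate cAMP read by HTRF; EC50 from variable-slope sigmoidal fit; Emax as % of H2-relaxin maximal cAMP in same run.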

Row | Structure (SMILES) | EC50 [nM] | Emax [%]
1 | CCCCCCCCCCCCCCC(=O)N[C@@H](CCC(=O)N[C@@H](CCC(=O)N[C@@H](CCC(=O)N[C@@H](CCC(=O)NCCCC[C@H](NC(=O)COCCOCCNC(=O)COCCOCCNC(=O)COCCOCCNC(=O)COCCOCCNC(=O)[C@H](CCCCNC(C)=O)NC(=O)[C@H](C)NC(=O)[C@H](CCCNC(=N)N)NC(=O)[C@](C)(CCCCN)NC(=O)[C@H](CO)NC(=O)[C@H](Cc1ccccc1)NC(=O)[C@@H](NC(=O)[C@H](CO)NC(=O)[C@H](CCC(N)=O)NC(=O)CNC(=O)[C@H](CCC(=O)O)NC(=O)C(C)(C)NC(=O)C(C)(C)NC(=O)[C@@H](NC(=O)[C@H](CCCCNC(C)=O)NC(=O)[C@H](C)NC(=O)[C@H](CCCNC(=N)N)NC(=O)[C@@H](NC(=O)[C@H](CCCCN)NC(=O)[C@H](CCC(=O)O)NC(=O)[C@H](CCCNC(=N)N)NC(=O)CNC(=O)[C@H](CCC(=O)O)NC(=O)[C@H](CC(C)C)NC(C)=O)C(C)C)[C@@H](C)CC)[C@@H](C)O)C(N)=O)C(=O)O)C(=O)O)C(=O)O)C(=O)O [compound 182] (Ac-LEGREKVRAK(Ac)I[Aib][Aib]EGQSTFS[αMeK]RAK(Ac)[AEEA][AEEA][AEEA][AEEA]K([γGlu-γGlu-γGlu-γGlu-Pentadecanoyl])-NH2) | 0.19 | 99
2 | CCCCCCCCCCCCCCCC(=O)N[C@@H](CCC(=O)N[C@@H](CCC(=O)N[C@@H](CCC(=O)NCCCOCCOCCOCCCNC(=O)CCC(=O)NCCCOCCOCCOCCCNC(=O)CCC(=O)NCCCOCCOCCOCCCNC(=O)CCC(=O)NCCCC[C@H](NC(=O)[C@H](CCCCNC(C)=O)NC(=O)[C@H](C)NC(=O)[C@H](CCCNC(=N)N)NC(=O)[C@](C)(CCCCN)NC(=O)[C@H](CO)NC(=O)[C@H](Cc1ccccc1)NC(=O)[C@@H](NC(=O)[C@H](CO)NC(=O)[C@H](CCCC)NC(=O)CNC(=O)[C@H](CCC(=O)O)NC(=O)C(C)(C)NC(=O)C(C)(C)NC(=O)[C@@H](NC(=O)[C@H](CCCCNC(C)=O)NC(=O)[C@H](C)NC(=O)[C@H](CCCNC(=N)N)NC(=O)[C@@H](NC(=O)[C@H](CCCCN)NC(=O)[C@H](CCC(=O)O)NC(=O)[C@H](CCCNC(=N)N)NC(=O)CNC(=O)[C@H](CCC(=O)O)NC(=O)[C@H](CC(C)C)NC(C)=O)C(C)C)[C@@H](C)CC)[C@@H](C)O)C(N)=O)C(=O)O)C(=O)O)C(=O)O [compound 183] (Ac-LEGREKVRAK(Ac)I[Aib][Aib]EG[Nle]STFS[αMeK]RAK(Ac)K([Suc-X8])-NH2) | 0.08 | 94
3 | CCCCCCCCCCCCCCCC(=O)N[C@@H](CCC(=O)N[C@@H](CCC(=O)NCCCC[C@H](NC(=O)CC[C@H](NC(=O)CC[C@H](NC(=O)COCCOCCNC(=O)COCCOCCNC(=O)COCCOCCNC(=O)COCCOCCNC(=O)[C@H](CCCCNC(C)=O)NC(=O)[C@H](C)NC(=O)[C@H](CCCNC(=N)N)NC(=O)[C@](C)(CCCCN)NC(=O)[C@H](CO)NC(=O)[C@H](Cc1ccccc1)NC(=O)[C@@H](NC(=O)[C@H](CO)NC(=O)[C@H](CCC(N)=O)NC(=O)CNC(=O)[C@H](CCC(=O)O)NC(=O)C(C)(C)NC(=O)C(C)(C)NC(=O)[C@@H](NC(=O)[C@H](CCCCNC(C)=O)NC(=O)[C@H](C)NC(=O)[C@H](CCCNC(=N)N)NC(=O)[C@@H](NC(=O)[C@H](CCCCN)NC(=O)[C@H](CCC(=O)O)NC(=O)[C@H](CCCNC(=N)N)NC(=O)CNC(=O)[C@H](CCC(=O)O)NC(=O)[C@H](CC(C)C)NC(C)=O)C(C)C)[C@@H](C)CC)[C@@H](C)O)C(=O)O)C(=O)O)C(N)=O)C(=O)O)C(=O)O [compound 185] (Ac-LEGREKVRAK(Ac)I[Aib][Aib]EGQSTFS[αMeK]RAK(Ac)[AEEA][AEEA][AEEA][AEEA][γGlu][γGlu]K([γGlu-γGlu-Palmitoyl])-NH2) | 0.05 | 100
4 | CCCCCCCCCCCCCCC(=O)N[C@@H](CCC(=O)N[C@@H](CCC(=O)NCCCC[C@H](NC(=O)CC[C@H](NC(=O)CC[C@H](NC(=O)COCCOCCNC(=O)COCCOCCNC(=O)COCCOCCNC(=O)COCCOCCNC(=O)[C@H](CCCCNC(C)=O)NC(=O)[C@H](C)NC(=O)[C@H](CCCNC(=N)N)NC(=O)[C@](C)(CCCCN)NC(=O)[C@H](CO)NC(=O)[C@H](Cc1ccccc1)NC(=O)[C@@H](NC(=O)[C@H](CO)NC(=O)[C@H](CCC(N)=O)NC(=O)CNC(=O)[C@H](CCC(=O)O)NC(=O)C(C)(C)NC(=O)C(C)(C)NC(=O)[C@@H](NC(=O)[C@H](CCCCNC(C)=O)NC(=O)[C@H](C)NC(=O)[C@H](CCCNC(=N)N)NC(=O)[C@@H](NC(=O)[C@H](CCCCN)NC(=O)[C@H](CCC(=O)O)NC(=O)[C@H](CCCNC(=N)N)NC(=O)CNC(=O)[C@H](CCC(=O)O)NC(=O)[C@H](CC(C)C)NC(C)=O)C(C)C)[C@@H](C)CC)[C@@H](C)O)C(=O)O)C(=O)O)C(N)=O)C(=O)O)C(=O)O [compound 186] (Ac-LEGREKVRAK(Ac)I[Aib][Aib]EGQSTFS[αMeK]RAK(Ac)[AEEA][AEEA][AEEA][AEEA][γGlu][γGlu]K([γGlu-γGlu-Pentadecanoyl])-NH2) | 0.18 | 100
5 | CCCCCCCCCCCCCCCC(=O)N[C@@H](CCC(=O)N[C@@H](CCC(=O)N[C@@H](CCC(=O)NCCCC[C@H](NC(=O)CCC(=O)NCCCOCCOCCOCCCNC(=O)CCC(=O)NCCCOCCOCCOCCCNC(=O)CCC(=O)NCCCOCCOCCOCCCNC(=O)[C@H](CCCCNC(C)=O)NC(=O)[C@H](C)NC(=O)[C@H](CCCNC(=N)N)NC(=O)[C@](C)(CCCCN)NC(=O)[C@H](CO)NC(=O)[C@H](Cc1ccccc1)NC(=O)[C@@H](NC(=O)[C@H](CO)NC(=O)[C@H](CCCC)NC(=O)CNC(=O)[C@H](CCC(=O)O)NC(=O)C(C)(C)NC(=O)C(C)(C)NC(=O)[C@@H](NC(=O)[C@H](CCCCNC(C)=O)NC(=O)[C@H](C)NC(=O)[C@H](CCCNC(=N)N)NC(=O)[C@@H](NC(=O)[C@H](CCCCN)NC(=O)[C@H](CCC(=O)O)NC(=O)[C@H](CCCNC(=N)N)NC(=O)CNC(=O)[C@H](CCC(=O)O)NC(=O)[C@H](CC(C)C)NC(C)=O)C(C)C)[C@@H](C)CC)[C@@H](C)O)C(N)=O)C(=O)O)C(=O)O)C(=O)O [compound 187] (Ac-LEGREKVRAK(Ac)I[Aib][Aib]EG[Nle]STFS[αMeK]RAK(Ac)-X18) | – | 100
6 | CCCCCCCCCCCCCCC(=O)N[C@@H](CCC(=O)N[C@@H](CCC(=O)N[C@@H](CCC(=O)NCCCC[C@H](NC(=O)CCC(=O)NCCCOCCOCCOCCCNC(=O)CCC(=O)NCCCOCCOCCOCCCNC(=O)CCC(=O)NCCCOCCOCCOCCCNC(=O)[C@H](CCCCNC(C)=O)NC(=O)[C@H](C)NC(=O)[C@H](CCCNC(=N)N)NC(=O)[C@](C)(CCCCN)NC(=O)[C@H](CO)NC(=O)[C@H](Cc1ccccc1)NC(=O)[C@@H](NC(=O)[C@H](CO)NC(=O)[C@H](CCCC)NC(=O)CNC(=O)[C@H](CCC(=O)O)NC(=O)C(C)(C)NC(=O)C(C)(C)NC(=O)[C@@H](NC(=O)[C@H](CCCCNC(C)=O)NC(=O)[C@H](C)NC(=O)[C@H](CCCNC(=N)N)NC(=O)[C@@H](NC(=O)[C@H](CCCCN)NC(=O)[C@H](CCC(=O)O)NC(=O)[C@H](CCCNC(=N)N)NC(=O)CNC(=O)[C@H](CCC(=O)O)NC(=O)[C@H](CC(C)C)NC(C)=O)C(C)C)[C@@H](C)CC)[C@@H](C)O)C(N)=O)C(=O)O)C(=O)O)C(=O)O [compound 188] (Ac-LEGREKVRAK(Ac)I[Aib][Aib]EG[Nle]STFS[αMeK]RAK(Ac)-X14) | – | 100
7 | CCCCCCCCCCCCCCC(=O)N[C@@H](CCC(=O)N[C@@H](CCC(=O)N[C@@H](CCC(=O)NCCCOCCOCCOCCCNC(=O)CCC(=O)NCCCOCCOCCOCCCNC(=O)CCC(=O)NCCCOCCOCCOCCCNC(=O)CCC(=O)NCCCC[C@H](NC(=O)[C@H](CCCCNC(C)=O)NC(=O)[C@H](C)NC(=O)[C@H](CCCNC(=N)N)NC(=O)[C@](C)(CCCCN)NC(=O)[C@H](CO)NC(=O)[C@H](Cc1ccccc1)NC(=O)[C@@H](NC(=O)[C@H](CO)NC(=O)[C@H](CCC(N)=O)NC(=O)CNC(=O)[C@H](CCC(=O)O)NC(=O)C(C)(C)NC(=O)C(C)(C)NC(=O)[C@@H](NC(=O)[C@H](CCCCNC(C)=O)NC(=O)[C@H](C)NC(=O)[C@H](CCCNC(=N)N)NC(=O)[C@@H](NC(=O)[C@H](CCCCN)NC(=O)[C@H](CCC(=O)O)NC(=O)[C@H](CCCNC(=N)N)NC(=O)CNC(=O)[C@H](CCC(=O)O)NC(=O)[C@H](CC(C)C)NC(C)=O)C(C)C)[C@@H](C)CC)[C@@H](C)O)C(N)=O)C(=O)O)C(=O)O)C(=O)O [compound 189] (Ac-LEGREKVRAK(Ac)I[Aib][Aib]EGQSTFS[αMeK]RAK(Ac)K([Suc-X17])-NH2) | – | 100
